The experiment deals with Plasmopara viticola. Nature of the experiment: Plasmopara test (grapevine)/protective. The experiment is classed as in vivo, Plasmopara viticola on grapevine. To be noted: protective, evaluation 6 days after inoculation. On the procedure: Plasmopara Test (Grapevine)/Protective
Solvent: 49 parts by weight of acetone
Emulsifier: 1 part by weight of alkyl-aryl polyglycol ether
To produce a suitable preparation of active compound, 1 part by weight of active compound or active compound combination is mixed with the stated amounts of solvent and emulsifier, and the concentrate is diluted with water to the desired concentration, or a commercially available formulation of active compound or active compound combination is diluted with water to the desired concentration.
To test for protective activity, young plants are sprayed with the preparation of active compound at the stated application rate. After the spray coating has dried on, the plants are inoculated with an aqueous spore suspension of Plasmopara viticola and then remain in an incubation cabin at approximately 20° C. and 100% relative atmospheric humidity for 1 day. The plants are then placed in a greenhouse at approximately 21° C. and approximately 90% atmospheric humidity for 4 days. The plants are then moistened and then placed in an incubation cabin for 1 day.
Evaluation is carried out 6 days after the inoculation. 0% means an efficacy which corresponds to that of the control, whereas an efficacy of 100% means that no infection is observed.

The values below come from patent US6787567B2, “Fungicidal active ingredients combinations” (Bayer Aktiengesellschaft, priority 2000, dated 2004).

With `[Cl-].[Cu+2].[Cu+2].[OH-].[OH-].[OH-]` [Copper oxychloride (XXXXVIa), copper oxychloride], under “application rate 100 g/ha”, the “% efficacy” value is 26%.
Turning to `CON=C(C(=O)NCCc1ccc(OC)c(OC)c1)c1ccc2c(c1)CCCC2` [Ib], the “% efficacy” value (application rate 10 g/ha) came out at 66%.
